From PubChem BioAssay (NCI)
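Assay format: 96-well plates, 48-hour exposure. Definition used: TGI = concentration required for complete inhibition of growth.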

Columns and labels:
Experiment in all cases: NCI tumour cell line growth inhibition, 48 h
[1] = tested on: ACHN renal
[2] = tested on: COLO 205 colon
[3] = tested on: EKVX NSCLC
[4] = tested on: HCC-2998 colon
[5] = tested on: HCT-15 colon
[6] = tested on: HOP-92 NSCLC
[7] = tested on: HS 578T breast
[8] = tested on: IGROV1 ovarian
[9] = tested on: M14 melanoma
[10] = tested on: MALME-3M melanoma
[11] = tested on: NCI-H23 lung
[12] = tested on: NCI/ADR-RES ovarian
[13] = tested on: SF-539 CNS
[14] = tested on: SNB-75 CNS
[15] = tested on: SR leukemia
[16] = tested on: SW-620 colon
[17] = tested on: T-47D breast
[18] = tested on: U251 CNS
[19] = tested on: BT-549 breast

SMILES | TGI [1] [µM] | TGI [2] [µM] | TGI [3] [µM] | TGI [4] [µM] | TGI [5] [µM] | TGI [6] [µM] | TGI [7] [µM] | TGI [8] [µM] | TGI [9] [µM] | TGI [10] [µM] | TGI [11] [µM] | TGI [12] [µM] | TGI [13] [µM] | TGI [14] [µM] | TGI [15] [µM] | TGI [16] [µM] | TGI [17] [µM] | TGI [18] [µM] | TGI [19] [µM]
C1C2CC3CC1CC(c1nn4c(C56CC7CC(CC(C7)C5)C6)nnc4s1)(C2)C3 | > 100 | > 100 | > 100 | > 100 | > 100 | > 100 | > 100 | > 100 | > 100 | > 100 | > 100 | > 100 | > 100 | > 100 | > 100 | > 100 | > 100 | > 100 | 
Cc1cccc(N/C(=C(/C(Cl)=C(Cl)Cl)[N+](=O)[O-])n2nnc3ccccc32)c1 | 63.1 | 32.8 | 39.6 | > 100 | 42.3 |  | 21.8 |  | 47.5 | 28.1 | 34.7 | 49.4 | 32 |  |  | 29.2 | 56 | 26.9 | 36.5
O=S(=O)(O)CCSSCCS(=O)(=O)O | > 1000 | > 1000 | > 1000 | > 1000 | > 1000 | > 1000 |  | > 1000 | > 1000 | > 1000 | > 1000 | > 1000 | > 1000 | > 1000 | > 1000 | > 1000 | > 1000 | > 1000 | > 1000
CC[C@@]1(O)C(=O)OCc2c1cc1n(c2=O)Cc2c-1nc1ccccc1c2/C=N\NC(=O)C[n+]1ccccc1 | 1.27 | > 100 | > 100 | > 100 | > 100 | > 31.6 | > 100 | > 100 | 6.37 | > 100 | 7.71 | > 100 | 0.971 | > 28.2 |  | > 100 | 2.9 | 32 | > 100
O=C1c2c(Br)sc(Br)c2C(NC(=O)C(F)(F)F)C1O (stereo unspecified) | 84.2 | 33.4 | 39.5 | 32.6 | 33.6 | 35.9 | > 100 | 42.3 | 48.2 | 43.7 | 46.3 | 75.2 | 32.1 | > 100 |  | 40 | 55.9 | 37.4 | 34.9
Cc1ccc(S(=O)(=O)NC(=O)NCc2ccc(S(N)(=O)=O)cc2)cc1 | > 100 | > 100 | > 100 | > 100 | > 100 | > 100 | > 100 | > 100 | > 100 | > 100 | > 100 | > 100 | > 100 | > 100 | > 100 | > 100 | > 100 | > 100 | 
COC(=O)C1=CC2C(=O)c3ccccc3C1(c1ccccc1)N2C1CCCCC1 (stereo unspecified) | > 100 | 26.2 | > 100 | 30.1 | > 100 | > 100 |  | > 100 | > 100 | 73.1 | > 100 | > 100 | 41.5 | > 100 |  | > 100 |  | 43.7 | 79.7
NCc1ccc(-c2ccc(CN)s2)s1 | > 100 | > 100 | > 100 | > 100 | > 100 | > 100 |  | 76.3 | > 100 | > 100 | > 100 | 83.6 | > 100 | > 100 |  | > 100 | > 100 | > 100 | 
COc1ccc(CC2Cc3ccccc3CCN2)cc1OC (stereo unspecified) |  | 21.4 | > 50 | > 50 | > 50 | > 50 | > 50 | > 50 | > 50 | > 50 | > 50 | > 50 | > 50 | > 50 |  | > 50 | > 50 | > 50 | > 50
C/C(Cl)=N/OC(=O)Nc1ccc(F)c([N+](=O)[O-])c1 | 8.23 | 5.38 | 33.1 | > 100 | 12.6 | > 72.5 | 16.4 | 17.9 | > 48 | 8.88 | 48.5 | > 100 | > 100 | 25 | 30.7 | 25.6 |  | 41.9 | 29.8
O=[N+]([O-])/C(C(Cl)=C(Cl)Cl)=C1\Nc2ccc([N+](=O)[O-])cc2N1 | > 100 | > 100 | > 100 |  | > 100 | > 100 |  |  | > 100 | > 100 | > 100 | > 100 |  | > 100 |  |  | > 100 | > 100 | > 100
O=S(=O)(/N=S(/Nc1ccccc1)C(Cl)Cl)c1ccccc1 (stereo unspecified) | > 100 | > 100 | > 100 |  | > 100 | > 100 | > 100 | > 100 | > 100 | > 100 | > 100 | > 100 | > 100 | > 100 |  | > 100 | > 100 | > 100 | > 100
CCOC(=O)CN=c1nc(SC)sc2c(C(=O)OCC)nc(Sc3ccccc3)n12 |  | > 100 | > 100 | > 100 |  | > 100 |  | > 100 | > 100 | > 100 |  |  |  |  | > 100 | > 100 |  |  | 
